Legend:
[1] = tested on: human embryonic stem cell-derived hepatocytes (hES-Hep); settings: hES-Hep treated with alcohol, real-time PCR, FIG. 3
Experimental: Particularly, total RNA was extracted from the adult Hep, Fetal-Hep, and human embryonic stem cell-derived hepatocytes by using Trizol reagent (Invitrogen), followed by cDNA synthesis by using amfi-rivert II cDNA synthesis Master Mix (Gendepot) according to the manufacturer's protocol. Genes in interest were amplified from the transcript by using the primers listed in the Table 1 below by using SYBR green real-time PCR master mix (Toyobo, Japan). The real-time PCR was performed by using Bio-rad CFX96 real-time PCR detection system (Bio-rad). The gene expression level was calculated by ΔΔCt method and by using β-actin as a denominator of the gene expression. Compared with the control gene expression, the obtained value was presented as fold change.

[2] = tested on: human embryonic stem cell-derived hepatocytes (hES-Hep); settings: hES-Hep treated with alcohol (200 mM ethanol, 24 hours), without co-culture, FIG. 6
Experimental: 2×10^5 mouse hepatic stellate cells were cultured on the plate (Corning, USA) with 8 μm holes coated with human embryonic stem cell-derived hepatocytes cultured in DMEM supplemented with 10% FBS. The cell ratio of mouse hepatic stellate cells to human embryonic stem cell-derived hepatocytes was maintained as 1:2. […] 48 hours later, the cells and the medium were collected (FIG. 4).
Human embryonic stem cell-derived hepatocytes were co-cultured with mouse hepatic stellate cells. Then, TUNEL assay was performed to investigate apoptosis therein.
Apoptosis was investigated by using In Situ Cell Death Detection Kit (Fluorescence, Roche). Nucleus of the cell was stained with DAPI, followed by visualization using Leica DMI 4000B automatic vertical microscope system (Germany) equipped with Leica EL6000 and Leica CTR 4000 CCD camera. Computer assisted images were analyzed with Leica Application Suite Advanced Fluorescence (LAS AF, Leica).

[3] = tested on: human embryonic stem cell-derived hepatocytes (hES-Hep); assay: Immunocytochemistry (immunofluorescence) of CYP2E1 after the treatment of retinoic acid; format: cell-based; settings: 1 ump all-trans retinoic acid and 0.2 M EtOH, culture 24 hours, anti-CYP2E1 antibody, FIG. 18
Experimental: Human embryonic stem cell-derived hepatocytes were treated with retinoic acid, followed by immunofluorescence in order to examine the expression of CYP2E1, the alcohol metabolism associated enzyme.
Particularly, the human embryonic stem cell-derived hepatocytes differentiated by the same manner as described in Example 1 were treated with 1 ump all-trans retinoic acid and 0.2 M EtOH, followed by culture for 24 hours. The cells were fixed with 4% paraformaldehyde. […] Blocking was performed by treating the cells with 5% goat serum at 37° C. for 1 hour. The cells were stained with anti-CYP2E1 antibody (Millipore, Germany).

[4] = tested on: human embryonic stem cell-derived hepatocytes (hES-Hep); assay: Gene expression (real time PCR) after the treatment of retinoic acid; format: cell-based; settings: 1 ump all-trans retinoic acid or 9-cis-retinoic acid, culture 12~24 hours, FIG. 16
Experimental: Human embryonic stem cell-derived hepatocytes were treated with retinoic acid, followed by investigation of the gene expressions of alcohol metabolism associated enzymes, drug metabolism associated enzymes, and anti-oxidant enzymes.
(§1) Particularly, the human embryonic stem cell-derived hepatocytes differentiated by the same manner as described in Example 1 were treated with 1 ump all-trans retinoic acid or 9-cis-retinoic acid, followed by culture for 12˜24 hours. Then, real time PCR was performed by the same manner as described in Experimental Example <1˜3> in order to examine the expressions of alcohol metabolism associated enzymes (AHD1a, ADH1b, ADH1c, and CYP2E1), drug metabolism associated enzymes (CYP2C9, CYP2D6, and CYP3A4), and anti-oxidant enzymes (catalase and Mn-SOD).

[5] = tested on: human embryonic stem cell-derived hepatocytes (hES-Hep); assay: Gene expression (real time PCR) after the treatment of retinoic acid and ethanol; format: cell-based; settings: 1 ump all-trans retinoic acid and 0.2 M EtOH, culture 24 hours, FIG. 17
Experimental: Human embryonic stem cell-derived hepatocytes were treated with retinoic acid and ethanol, followed by investigation of the gene expressions of alcohol metabolism associated enzymes, drug metabolism associated enzymes, and anti-oxidant enzymes.
as §1, with “and 0.2 M EtOH,” for “or 9-cis-retinoic acid,”, “24” for “12˜24”, “<1-3>” for “<1˜3>”, “CYP2E1)” for “CYP2E1), drug metabolism associated enzymes (CYP2C9, CYP2D6, and CYP3A4),”

| expression of CYP2E1 (immunofluorescence) [3] | expressions of alcohol metabolism associated enzymes (AHD1a, ADH1b, ADH1c, CYP2E1), drug metabolism associated enzymes (CYP2C9, CYP2D6, CYP3A4) and anti-oxidant enzymes (catalase, Mn-SOD) [4] | expressions of alcohol metabolism associated enzymes (AHD1a, ADH1b, ADH1c, CYP2E1) and anti-oxidant enzymes (catalase, Mn-SOD) [5] | SMILES | expression of alcohol metabolism associated enzymes [1] | apoptosis (TUNEL) [2] |
| --- | --- | --- | --- | --- | --- |
| – | – | – | CCO [alcohol, ethanol] | up-regulated | increased |
| significantly increased | all increased | all increased | CC1=C(/C=C/C(C)=C/C=C/C(C)=C/C(=O)O)C(C)(C)CCC1 [retinoic acid] | – | – |
